For data set [1], the system named is Tetranychus urticae (Two-Spotted Spider Mite). The data set can be described thus: Example B21: Tetranychus urticae, sprayed bean leaf discs, mortality. It counts as in vivo. To be noted: foliar, 192 h, application rate of 200 ppm, mixed population (mobile stages), 8 days after infestation. The method, then:
Bean leaf discs on agar in 24-well microtiter plates were sprayed with aqueous test solutions prepared from 10,000 ppm DMSO stock solutions. After drying the leaf discs were infested with a mite population of mixed ages. The samples were assessed for mortality on mixed population (mobile stages) 8 days after infestation.

Data set [2] relates to Spodoptera littoralis (Egyptian Cotton Leaf Worm). Kind of data set: Example B14: Spodoptera littoralis, sprayed cotton leaf discs, anti-feeding effect. It counts as in vivo. To be noted: foliar, 72 h, application rate of 200 ppm, L1 larvae, 3 days after infestation. The gist of the method: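 Cotton leaf discs on agar sprayed with aqueous test solutions made from 10,000 ppm DMSO stocks, dried, then infested with five L1 larvae. Anti-feeding effect scored 3 days after infestation against untreated discs; control counted when anti-feedant effect exceeds untreated.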

Data set [3] relates to Diabrotica balteata (Corn Root Worm). Kind of data set: Example B2: Diabrotica balteata, sprayed maize sprouts, mortality and growth inhibition. It counts as in vivo. The following applies: 96 h, application rate of 200 ppm, L2 larvae, 4 days after infestation, read-out: effect in at least one of the two categories (mortality or growth inhibition). The procedure: Maize sprouts placed onto an agar layer in 24-well microtiter plates were treated with aqueous test solutions prepared from 10,000 ppm DMSO stock solutions by spraying. After drying, the plates were infested with L2 larvae (6 to 10 per well). The samples were assessed for mortality and growth inhibition in comparison to untreated samples 4 days after infestation.

Data set [4] relates to Plutella xylostella (Diamond Back Moth). Kind of data set: Example B10: Plutella xylostella, treated artificial diet, growth inhibition. It counts as in vivo. The following applies: 120 h, application rate of 200 ppm, L2 larvae, 5 days after infestation. The gist of the method:
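Artificial diet treated with aqueous dilutions prepared from 10,000 ppm DMSO stocks, dried, then infested with 10-15 L2 larvae per well. Growth inhibition scored against untreated samples 5 days after infestation.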

For data set [5] the test system is unchanged. The data set can be described thus: Example B13: Plutella xylostella, treated artificial diet, mortality and growth inhibition. It counts as in vivo. To be noted: 120 h, application rate of 200 ppm, L2 larvae, 5 days after infestation, read-out: effect in at least one of the two categories (mortality or growth inhibition). The method, then:
24-well microtiter plates with artificial diet were treated with aqueous test solutions prepared from 10,000 ppm DMSO stock solutions by pipetting. After drying, the plates were infested with L2 larvae (10 to 15 per well). The samples were assessed for mortality and growth inhibition in comparison to untreated samples 5 days after infestation.

Data set [6] relates to Aedes aegypti (Yellow Fever Mosquito). The data set can be described thus: Example B23: Aedes aegypti, dry deposits in 12 well tissue culture plates, control. It counts as in vivo. The following applies: application rate of 200 ppm in ethanol, adult females, after 48 h and/or 24 h. The method, then:
Test solutions, at an application rate of 200 ppm in ethanol, were applied to 12 well tissue culture plates. Once the deposits were dry, five, two to five day old adult female Aedes aegypti were added to each well, and sustained with a 10% sucrose solution in a cotton wool plug. Assessment of knockdown was made one hour after introduction, and mortality was assessed at 24 and 48 hours after introduction.

The test system of data set [7] is Diabrotica balteata (Corn Root Worm). The data set can be described thus: Example B3: Diabrotica balteata, sprayed maize sprouts, mortality. It counts as in vivo. The following applies: 96 h, application rate of 200 ppm, L2 larvae, 4 days after infestation. The method, then:
Maize sprouts placed onto an agar layer in 24-well microtiter plates were treated with aqueous test solutions prepared from 10,000 ppm DMSO stock solutions by spraying. After drying, the plates were infested with L2 larvae (6 to 10 per well). The samples were assessed for mortality 4 days after infestation.

The subject of data set [8] is Spodoptera littoralis (Egyptian Cotton Leaf Worm). Kind of data set: Example B17: Spodoptera littoralis, sprayed cotton leaf discs, mortality, anti-feeding effect and growth inhibition. It counts as in vivo. To be noted: foliar, 72 h, application rate of 200 ppm, L1 larvae, 3 days after infestation, read-out: control (at least one of mortality, anti-feedant effect, growth inhibition). The gist of the method:
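Cotton leaf discs on agar sprayed with aqueous dilutions of 10,000 ppm DMSO stocks, dried, then infested with five L1 larvae. Mortality, anti-feeding and growth inhibition scored against untreated discs 3 days after infestation. Control recorded when any one category exceeds the untreated sample.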

Data set [9] shares this test system. Kind of data set: Example B19: Spodoptera littoralis, compound in agar absorbed by lettuce roots, anti-feedant effect. It counts as in vivo. To be noted: 144 h, test rate of 12.5 ppm, uptake by lettuce roots, Spodoptera eggs, 6 days after infestation, read-out: anti-feeding. The gist of the method:
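Compound from DMSO stock mixed into agar; lettuce seedlings took it up via roots over 7 days, then cut leaves were infested with Spodoptera eggs. Anti-feedant effect scored 6 days after infestation relative to untreated samples.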

Data set [10] concerns Myzus persicae (Green Peach Aphid). Kind of data set: Example B8: Myzus persicae, sprayed sunflower leaf discs, mortality. To be noted: foliar, 144 h, application rate of 200 ppm, leaf disc spray, aphid population of mixed ages, 6 days after infestation. It counts as in vivo. The method, then:
Sunflower leaf discs were placed onto agar in a 24-well microtiter plate and sprayed with aqueous test solutions prepared from 10,000 ppm DMSO stock solutions. After drying, the leaf discs were infested with an aphid population of mixed ages. The samples were assessed for mortality 6 days after infestation.

Data set [11] concerns Euschistus heros (Neotropical Brown Stink Bug). The data set can be described thus: Example B5: Euschistus heros, sprayed soybean leaves, mortality. The following applies: 120 h, application rate of 200 ppm, N2 nymphs, 5 days after infestation. It counts as in vivo. The procedure: Soybean leaves on agar in 24-well microtiter plates were sprayed with aqueous test solutions prepared from 10,000 ppm DMSO stock solutions. After drying the leaves were infested with N2 nymphs. The samples were assessed for mortality 5 days after infestation.

The subject of data set [12] is Spodoptera littoralis (Egyptian Cotton Leaf Worm). The data set can be described thus: Example B20: Spodoptera littoralis, compound in agar absorbed by lettuce roots, mortality. It counts as in vivo. The following applies: 144 h, test rate of 12.5 ppm, uptake by lettuce roots, Spodoptera eggs, 6 days after infestation. The gist of the method: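 Compound from a 10,000 ppm DMSO stock mixed into agar; lettuce grown on it for 7 days to take up compound via roots, then leaves cut into lid plate. Spodoptera eggs applied on humid blotting paper; mortality scored 6 days after infestation.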

The test system is the same in data set [13]. The data set can be described thus: Example B18: Spodoptera littoralis, compound in agar absorbed by lettuce roots, mortality, anti-feedant effect and growth inhibition. It counts as in vivo. The following applies: 144 h, test rate of 12.5 ppm, uptake by lettuce roots, Spodoptera eggs, 6 days after infestation, read-out: effect in at least one of the three categories (mortality, anti-feeding, or growth inhibition). The method, boiled down:
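Compound from 10,000 ppm DMSO stock mixed into agar; lettuce seeds grew 7 days, taking compound up via roots into the lid plate. Cut leaves infested with Spodoptera eggs; mortality, anti-feedant effect and growth inhibition scored against untreated samples 6 days after infestation.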

The test system of data set [14] is Euschistus heros (Neotropical Brown Stink Bug). Kind of data set: Example B6: Euschistus heros, sprayed soybean leaves, mortality and growth inhibition. The following applies: 120 h, application rate of 200 ppm, N2 nymphs, 5 days after infestation, read-out: effect in at least one of the two categories (mortality or growth inhibition). It counts as in vivo. The procedure: Soybean leaves on agar in 24-well microtiter plates were sprayed with aqueous test solutions prepared from 10,000 ppm DMSO stock solutions. After drying the leaves were infested with N2 nymphs. The samples were assessed for mortality and growth inhibition in comparison to untreated samples 5 days after infestation.

The test system of data set [15] is Plutella xylostella (Diamond Back Moth). The data set can be described thus: Example B12: Plutella xylostella, treated artificial diet, mortality. It counts as in vivo. To be noted: 120 h, application rate of 200 ppm, L2 larvae, 5 days after infestation. The method, then:
24-well microtiter plates with artificial diet were treated with aqueous test solutions prepared from 10,000 ppm DMSO stock solutions by pipetting. After drying, the plates were infested with L2 larvae (10 to 15 per well). The samples were assessed for mortality 5 days after infestation.

Data set [16] has as its system Spodoptera littoralis (Egyptian Cotton Leaf Worm). The data set can be described thus: Example B16: Spodoptera littoralis, sprayed cotton leaf discs, mortality. It counts as in vivo. The following applies: foliar, 72 h, application rate of 200 ppm, L1 larvae, 3 days after infestation. The procedure: Cotton leaf discs were placed onto agar in 24-well microtiter plates and sprayed with aqueous test solutions prepared from 10,000 ppm DMSO stock solutions. After drying the leaf discs were infested with five L1 larvae. The samples were assessed for mortality 3 days after infestation.

For data set [17], the system named is Myzus persicae (Green Peach Aphid). Kind of data set: Example B9: Myzus persicae, roots of pea seedlings in test solution, mortality. It counts as in vivo. To be noted: 144 h, test rate of 24 ppm, 6 days. The method, then: Roots of pea seedlings infested with an aphid population of mixed ages were placed directly into aqueous test solutions prepared from 10,000 DMSO stock solutions. The samples were assessed for mortality 6 days after placing seedlings into test solutions.

As usually defined, the mortality is the share of the test organisms that died. Higher therefore signals a strong lethal effect. By inhibition is commonly meant the relative decrease from the control value, in per cent. Low values mean a response near the control, high ones a response far below the control. For orientation: melting point means the temperature of the solid-liquid transition.

On to `CCS(=O)(=O)c1cc(-c2cc(F)cc(F)c2)cnc1-c1cn2cnc(C(F)(F)F)cc2n1` [Compound P14], for which the mortality at 200 ppm in data set [1], in data set [7], in data set [10], in data set [11], in data set [15] and in data set [16] was ≥ 80% throughout. Besides, the pest or weed control at 200 ppm in data set [2] and in data set [6] was ≥ 80% each time. For the same compound, the percent effect (mortality or growth inhibition) at 200 ppm in data set [3], in data set [5] and in data set [14] was ≥ 80% in each case. In addition, the inhibition at 200 ppm in data set [4] was ≥ 80%. Moreover, in [8], the percent control (mortality, anti-feedant effect or growth inhibition) at 200 ppm was ≥ 80%. Besides, the pest or weed control at 12.5 ppm in data set [9] was ≥ 80%. The mortality at 12.5 ppm in data set [12] is ≥ 80%. In addition, in data set [13], the percent effect (mortality, anti-feeding or growth inhibition) at 12.5 ppm is ≥ 80%.

As to `CCS(=O)(=O)c1cc(CC#N)cnc1-c1cn2cnc(C(F)(F)F)cc2n1` [Compound P30, 2-[5-ethylsulfonyl-6-[7-(trifluoromethyl)imidazo[1,2-c]pyrimidin-2-yl]-3-pyridyl]acetonitrile], the percent effect (mortality or growth inhibition) at 200 ppm in data set [3], in [5] and in data set [14] was ≥ 80% each time. Further, the inhibition at 200 ppm in data set [4] is ≥ 80%. Moreover, the mortality at 200 ppm in data set [7] and in data set [11] was ≥ 80% each time. Moreover, the mortality at 24 ppm in data set [17] was ≥ 80%.

Take `C=Cc1cnc(-c2cn3cnc(C(F)(F)F)cc3n2)c(S(=O)(=O)CC)c1` [Example H6, 2-(3-ethylsulfonyl-5-vinyl-2-pyridyl)-7-(trifluoromethyl)imidazo[1,2-c]pyrimidine]: the melting point is 174 to 176 °C.

(Values after patent US10645928B2, “Pesticidally active polycyclic derivatives with sulfur containing substituents” (Syngenta Participations AG, priority 2014, dated 2020).)
